These results are taken from patent US9657046B2, “Methods for the treatment and prevention of inflammatory diseases” (Children's Medical Center Corporation, priority 2010, dated 2017).

In assay [1] the test system is OVA-sensitized BALB/c mice. As to the kind of experiment: Adoptive transfer of NKT cells from glycolipid-treated mice into OVA-sensitized BALB/c recipients (AHR, BAL). The format is in vivo, mouse. The note with it: OVA-sensitized WT recipients; for AHR in recipients of NKT cells from glycolipid-treated donors: donors treated i.p. at 2 wk (α-C-GalCer 5 μg, PI57 50 μg, or α-GalCer), NKT cells harvested 6 wks later.

The test system of another assay is NKT cells. The following applies: cited from earlier work.
The subject of a further assay is BALB/c mice. Description: OVA-induced AHR in adult mice treated with glycolipid at 2 weeks of age. It counts as in vivo, mouse. The note with it: 2 wk old mice treated i.p. (α-C-GalCer 5 μg, α-GalCer 2 μg, PI57 50 or 100 μg, PBS30 50 μg); AHR induced 6 wks (42 days) later. On the procedure:
In FIGS. 6A-6B, two-week-old BALB/c mice (n=6-8/group) (6A) or Tbet^−/− mice (6B) (n=4-6 per group) received 5 μg […] (cGal), 2 μg α-GalCer, or vehicle. After OVA sensitization and challenge, AHR was measured on day 44. In FIG. 6C, donor mice were treated with α-C-GalCer (5 μg) or vehicle i.p. NKT cells served as donors, as in FIG. 4A (n=4 per group). Lung resistance (left) and cell counts in BAL (right) were assessed. […] In FIG. 6E, mice received PI57 (50 μg), α-GalCer (2 μg), or vehicle i.p., and lungs were examined 1 or 14 days later for CD4 and CD8 expression. In FIG. 6F, absolute numbers of CD4^+ NKT and DN NKT subsets from 6E were assessed. In FIG. 6G, BALB/c mice (n=5-8/group) received PI57 or vehicle i.p. Lung resistance (left) and BAL cells (right) were assessed. In FIG. 6H, BALB/c mice treated with PI57 (50 μg), PBS30 (Sphingomonas glycolipid) (50 μg), or vehicle i.p. were assessed for AHR as in 6G. In FIG. 6I, donor mice were treated with PI57 (50 μg) or vehicle i.p. NKT cells served as donors as in FIG. 4A. Lung resistance (left) and BAL cells (right) were assessed (n=4 per group). […] Data represent 2-3 independent experiments. *P<0.05, #P<0.05, ***P<0.001 versus vehicle-OVA (6C, 6G, and 6I), DN NKT saline (6F), and CD4^+ NKT saline (6F).
Induction of AHR and measurement of airway responsiveness in the OVA model.
To induce AHR, BALB/c mice were sensitized with 100 μg of OVA (Sigma-Aldrich) in alum administered i.p (on day 0). After sensitization, mice were exposed to intranasal antigen (50 μg OVA/day) or normal saline for 1 day (day 7; single dose challenge protocol), or for 3 consecutive days (days 7, 8, 9). AHR was assessed on the day after last OVA-challenge. Control mice received i.p. injection of PBS and intranasal administrations of normal saline.

For another assay, the system named is pulmonary NKT cells. Description: Lung NKT cell subsets (CD4+, DN) by FACS after i.p. glycolipid in 2 week-old mice. The format is in vivo, mouse. The note with it: i.p. PI57 50 μg or α-GalCer 2 μg, lung 2 wks later. The procedure: In FIGS. 6A-6B, two-week-old BALB/c mice (n=6-8/group) (6A) or Tbet^−/− mice (6B) (n=4-6 per group) received 5 μg […] (cGal), 2 μg α-GalCer, or vehicle. After OVA sensitization and challenge, AHR was measured on day 44. In FIG. 6C, donor mice were treated with α-C-GalCer (5 μg) or vehicle i.p. NKT cells served as donors, as in FIG. 4A (n=4 per group). Lung resistance (left) and cell counts in BAL (right) were assessed. […] In FIG. 6E, mice received PI57 (50 μg), α-GalCer (2 μg), or vehicle i.p., and lungs were examined 1 or 14 days later for CD4 and CD8 expression. In FIG. 6F, absolute numbers of CD4^+ NKT and DN NKT subsets from 6E were assessed. In FIG. 6G, BALB/c mice (n=5-8/group) received PI57 or vehicle i.p. Lung resistance (left) and BAL cells (right) were assessed. In FIG. 6H, BALB/c mice treated with PI57 (50 μg), PBS30 (Sphingomonas glycolipid) (50 μg), or vehicle i.p. were assessed for AHR as in 6G. In FIG. 6I, donor mice were treated with PI57 (50 μg) or vehicle i.p. NKT cells served as donors as in FIG. 4A. Lung resistance (left) and BAL cells (right) were assessed (n=4 per group). […]
Cells were preincubated with anti-Fey blocking mAb (2.4G2) and washed before staining. […] Cells were analyzed on a BDCanto flow cytometer (BD Biosciences) using FlowJo 8.3.3 software (Tree Star, Inc.).
In general terms: A flow cytometer gives signals particle by particle.

As for `CCCCCCCCCCCCCCCCCCCCCCCCCC(=O)N[C@@H](CC[C@H]1OC(CO)[C@H](O)C(O)C1O)[C@H](O)[C@H](O)CCCCCCCCCCCCCC` (stereo partly drawn) [α-C-GalCer, α-C-Galactosylceramide], the “airway inflammation (BAL cells, lung sections) in recipients of NKT cells from glycolipid-treated donors” value in assay [1] (donors treated i.p. at 2 wk (α-C-GalCer 5 μg, PI57 50 μg)) is “protected recipients against the development of AHR and airway inflammation”. Besides, the “AHR in recipients of NKT cells from glycolipid-treated donors” value in assay [1] is reported as “protected recipients against the development of AHR”. The “cytokine synthesis induced (IFN-γ, IL-4)” value in the assay with NKT cells is on record as “preferentially induces IFN-γ but not IL-4 synthesis”. Also, the “protection against development of OVA-induced AHR (lung resistance)” value in the assay on BALB/c mice was “protected the mice as adults (42 days later) from the development of OVA-induced AHR”.

For the molecule `CCCCCCCCCCCCCCCCCCCCCCCCCC(=O)N[C@@H](CO[C@H]1O[C@H](CO)[C@H](O)[C@H](O)[C@H]1O)[C@H](O)[C@H](O)CCCCCCCCCCCCCC` [α-GalCer, α-Galactosylceramide], in the assay with pulmonary NKT cells, the “number of NKT cells (CD4+ and DN subsets) in the lung” value is “increased both CD4^+ and DN NKT cells in the lungs”. Also, the “AHR in recipients of NKT cells from glycolipid-treated donors” value in assay [1] is on record as “reduced AHR slightly, but this was not statistically significant”. The “cytokine synthesis induced (IFN-γ, IL-4)” value in the assay with NKT cells is “induces production of both IFN-γ and IL-4”. For the same molecule, in the assay with BALB/c mice, the “protection against development of OVA-induced AHR (lung resistance)” value is “did not prevent OVA induced AHR”.
